Source: US10721934B2, “Enhanced preservative” (Arch Chemicals, Inc., priority 2013, dated 2020)

How the values were obtained:
Type in all cases: cell-based
[1] = system: Pseudomonas aeruginosa ATCC 15442; experiment: Minimum Inhibitory Concentration (MIC) test, 96 well microtiter plate; details: single chemical
Method: Microorganisms: Pseudomonas aeruginosa ATCC 15442
(§1) MIC set up: A 96 well microtiter plate Minimum Inhibitory Concentration (MIC) test was run in broth suitable for the test organism. Serially diluted actives were prepared in sterilized water, and the start-up concentration varied depending on the efficacy range. Inocula prepared in 2× suitable broth was added into each well, and the final concentrations of bacteria were adjusted to approximately 5×10^5.

[2] = system: Aspergillus brasiliensis; experiment: MIC test, 96 well microtiter plate; details: single chemical
Method: as §1
(§2) Further MIC tests were conducted using different amine compounds in combination with a pyrithione and two different isothiazolinones. The procedures described in Example No. 1 were used.

[3] = system: Aureobasidium pullulans; experiment: MIC test, 96 well microtiter plate; details: single chemical
Method: as §1, §2

[4] = system: Candida albicans; experiment: MIC test, 96 well microtiter plate; details: single chemical
Method: as §1, §2

[5] = system: Escherichia coli; experiment: MIC test, 96 well microtiter plate; details: single chemical
Method: as §1, §2

[6] = system: Staphylococcus aureus; experiment: MIC test, 96 well microtiter plate; details: single chemical
Method: as §1, §2

[7] = system: mixed bacterial inoculum (Pseudomonas aeruginosa, Enterobacter cloacae, Escherichia coli, Acinetobacter calcoaceticus); experiment: Repeated inoculation of standard acrylic paint, streak plate rating
Method: In the following experiments, a pyrithione, an isothiazolinone, and a biocide enhancing agent in accordance with the present disclosure were combined with a standard acrylic paint. The concentrations of the pyrithione, the isothiazolinone and the biocide enhancing agent were varied. The pyrithione, the isothiazolinone and the biocide enhancing agent were added alone and in various mixtures to the standard acrylic paint.
The acrylic paint was then inoculated three times using a mixed bacterial inoculum. The bacterial inoculum, which comprised a bacterial suspension in water, contained the following four bacteria in equal proportions.
The samples were streak plated at 24, 48, and 72 hours after inoculation. The streak plates were rated as follows;

Which “Minimum Inhibitory Concentration” value [1] does the source give for `O=c1[nH]sc2ccccc12` [BIT, 1,2 Benzisothiazolin-3-one] here?
The value was 32.5 ppm.

What about the “Minimum Inhibitory Concentration” value [2] of the same molecule?
Its value is 32.5 ppm.

And the “Minimum Inhibitory Concentration” value [3]?
Its value is 4.1 ppm.

What about the “Minimum Inhibitory Concentration” value [4] of the same molecule?
The value was 8.1 ppm.

And the “Minimum Inhibitory Concentration” value [5]?
The value was 6.1 ppm.

What about the “Minimum Inhibitory Concentration” value [6] of the same molecule?
The value was 8.1 ppm.

What about the streak plate rating ([7]; Set Five, BIT 50 ppm, 1st inoculation 24 h) of the same molecule?
Its streak plate rating is 5 (>45 viable microorganisms Severely contaminated).

What about the streak plate rating ([7]; Set Five, BIT 50 ppm, 1st inoculation 48 h) of the same molecule?
The streak plate rating was 5 (>45 viable microorganisms Severely contaminated).

And the streak plate rating ([7]; Set Five, BIT 50 ppm, 1st inoculation 72 h)?
Its streak plate rating is 5 (>45 viable microorganisms Severely contaminated).

What about the streak plate rating ([7]; Set Five, BIT 50 ppm, 2nd inoculation 24 h) of the same molecule?
Its streak plate rating is 5 (>45 viable microorganisms Severely contaminated).

What about the streak plate rating ([7]; Set Five, BIT 50 ppm, 2nd inoculation 48 h) of the same molecule?
Its streak plate rating is 5 (>45 viable microorganisms Severely contaminated).

And the streak plate rating ([7]; Set Five, BIT 50 ppm, 2nd inoculation 72 h)?
Its streak plate rating is 5 (>45 viable microorganisms Severely contaminated).

And the streak plate rating ([7]; Set Five, BIT 50 ppm, 3rd inoculation 24 h)?
The streak plate rating was 5 (>45 viable microorganisms Severely contaminated).

What about the streak plate rating ([7]; Set Five, BIT 50 ppm, 3rd inoculation 48 h) of the same molecule?
Its streak plate rating is 5 (>45 viable microorganisms Severely contaminated).

And the streak plate rating ([7]; Set Five, BIT 50 ppm, 3rd inoculation 72 h)?
The streak plate rating was 5 (>45 viable microorganisms Severely contaminated).

What about the streak plate rating ([7]; Set Four, BIT 50 ppm, 1st inoculation 24 h) of the same molecule?
Its streak plate rating is 5 (>45 viable microorganisms Severely contaminated).

What about the streak plate rating ([7]; Set Four, BIT 50 ppm, 1st inoculation 48 h) of the same molecule?
Its streak plate rating is 5 (>45 viable microorganisms Severely contaminated).

What about the streak plate rating ([7]; Set Four, BIT 50 ppm, 1st inoculation 72 h) of the same molecule?
Its streak plate rating is 5 (>45 viable microorganisms Severely contaminated).

What about the streak plate rating ([7]; Set Four, BIT 50 ppm, 2nd inoculation 24 h) of the same molecule?
The streak plate rating was 5 (>45 viable microorganisms Severely contaminated).

And the streak plate rating ([7]; Set Four, BIT 50 ppm, 2nd inoculation 48 h)?
Its streak plate rating is 5 (>45 viable microorganisms Severely contaminated).

What about the streak plate rating ([7]; Set Four, BIT 50 ppm, 2nd inoculation 72 h) of the same molecule?
The streak plate rating was 5 (>45 viable microorganisms Severely contaminated).

What about the streak plate rating ([7]; Set Four, BIT 50 ppm, 3rd inoculation 24 h) of the same molecule?
Its streak plate rating is 5 (>45 viable microorganisms Severely contaminated).

What about the streak plate rating ([7]; Set Four, BIT 50 ppm, 3rd inoculation 48 h) of the same molecule?
The streak plate rating was 5 (>45 viable microorganisms Severely contaminated).

And the streak plate rating ([7]; Set Four, BIT 50 ppm, 3rd inoculation 72 h)?
Its streak plate rating is 5 (>45 viable microorganisms Severely contaminated).

What about the streak plate rating ([7]; Set One, BIT 60 ppm, 1st inoculation 24 h) of the same molecule?
Its streak plate rating is 5 (>45 viable microorganisms Severely contaminated).

What about the streak plate rating ([7]; Set One, BIT 60 ppm, 1st inoculation 48 h) of the same molecule?
The streak plate rating was 5 (>45 viable microorganisms Severely contaminated).

And the streak plate rating ([7]; Set One, BIT 60 ppm, 1st inoculation 72 h)?
The streak plate rating was 5 (>45 viable microorganisms Severely contaminated).

And the streak plate rating ([7]; Set One, BIT 60 ppm, 2nd inoculation 24 h)?
The streak plate rating was 5 (>45 viable microorganisms Severely contaminated).

And the streak plate rating ([7]; Set One, BIT 60 ppm, 2nd inoculation 48 h)?
The streak plate rating was 5 (>45 viable microorganisms Severely contaminated).

And the streak plate rating ([7]; Set One, BIT 60 ppm, 3rd inoculation 24 h)?
The streak plate rating was 5 (>45 viable microorganisms Severely contaminated).

What about the streak plate rating ([7]; Set One, BIT 60 ppm, 3rd inoculation 48 h) of the same molecule?
The streak plate rating was 5 (>45 viable microorganisms Severely contaminated).

And the streak plate rating ([7]; Set One, BIT 60 ppm, 3rd inoculation 72 h)?
The streak plate rating was 5 (>45 viable microorganisms Severely contaminated).

And the streak plate rating ([7]; Set One, BIT 120 ppm, 1st inoculation 24 h)?
Its streak plate rating is 1 (1-5 viable microorganisms Very lightly contaminated).

And the streak plate rating ([7]; Set One, BIT 120 ppm, 1st inoculation 48 h)?
The streak plate rating was 3 (16-30 viable microorganisms Moderately contaminated).

And the streak plate rating ([7]; Set One, BIT 120 ppm, 1st inoculation 72 h)?
The streak plate rating was 3 (16-30 viable microorganisms Moderately contaminated).

What about the streak plate rating ([7]; Set One, BIT 120 ppm, 2nd inoculation 24 h) of the same molecule?
The streak plate rating was 5 (>45 viable microorganisms Severely contaminated).

What about the streak plate rating ([7]; Set One, BIT 120 ppm, 2nd inoculation 48 h) of the same molecule?
The streak plate rating was 5 (>45 viable microorganisms Severely contaminated).

What about the streak plate rating ([7]; Set One, BIT 120 ppm, 3rd inoculation 24 h) of the same molecule?
Its streak plate rating is 5 (>45 viable microorganisms Severely contaminated).

And the streak plate rating ([7]; Set One, BIT 120 ppm, 3rd inoculation 48 h)?
The streak plate rating was 5 (>45 viable microorganisms Severely contaminated).

And the streak plate rating ([7]; Set One, BIT 120 ppm, 3rd inoculation 72 h)?
The streak plate rating was 5 (>45 viable microorganisms Severely contaminated).

And the streak plate rating ([7]; Set Three, BIT 50 ppm, 1st inoculation 24 h)?
Its streak plate rating is 5 (>45 viable microorganisms Severely contaminated).

What about the streak plate rating ([7]; Set Three, BIT 50 ppm, 1st inoculation 48 h) of the same molecule?
The streak plate rating was 5 (>45 viable microorganisms Severely contaminated).

What about the streak plate rating ([7]; Set Three, BIT 50 ppm, 1st inoculation 72 h) of the same molecule?
The streak plate rating was 5 (>45 viable microorganisms Severely contaminated).

What about the streak plate rating ([7]; Set Three, BIT 50 ppm, 2nd inoculation 24 h) of the same molecule?
The streak plate rating was 5 (>45 viable microorganisms Severely contaminated).

And the streak plate rating ([7]; Set Three, BIT 50 ppm, 2nd inoculation 48 h)?
Its streak plate rating is 5 (>45 viable microorganisms Severely contaminated).

And the streak plate rating ([7]; Set Three, BIT 50 ppm, 2nd inoculation 72 h)?
Its streak plate rating is 5 (>45 viable microorganisms Severely contaminated).

What about the streak plate rating ([7]; Set Three, BIT 50 ppm, 3rd inoculation 24 h) of the same molecule?
Its streak plate rating is 5 (>45 viable microorganisms Severely contaminated).

And the streak plate rating ([7]; Set Three, BIT 50 ppm, 3rd inoculation 48 h)?
Its streak plate rating is 5 (>45 viable microorganisms Severely contaminated).

And the streak plate rating ([7]; Set Three, BIT 50 ppm, 3rd inoculation 72 h)?
Its streak plate rating is 5 (>45 viable microorganisms Severely contaminated).

What about the streak plate rating ([7]; Set Two, BIT 25 ppm, 1st inoculation 24 h) of the same molecule?
The streak plate rating was 5 (>45 viable microorganisms Severely contaminated).

And the streak plate rating ([7]; Set Two, BIT 25 ppm, 1st inoculation 48 h)?
Its streak plate rating is 5 (>45 viable microorganisms Severely contaminated).

And the streak plate rating ([7]; Set Two, BIT 25 ppm, 1st inoculation 72 h)?
The streak plate rating was 5 (>45 viable microorganisms Severely contaminated).

What about the streak plate rating ([7]; Set Two, BIT 25 ppm, 2nd inoculation 24 h) of the same molecule?
Its streak plate rating is 5 (>45 viable microorganisms Severely contaminated).

What about the streak plate rating ([7]; Set Two, BIT 25 ppm, 2nd inoculation 48 h) of the same molecule?
The streak plate rating was 5 (>45 viable microorganisms Severely contaminated).

What about the streak plate rating ([7]; Set Two, BIT 25 ppm, 2nd inoculation 72 h) of the same molecule?
The streak plate rating was 5 (>45 viable microorganisms Severely contaminated).

And the streak plate rating ([7]; Set Two, BIT 25 ppm, 3rd inoculation 24 h)?
Its streak plate rating is 5 (>45 viable microorganisms Severely contaminated).

What about the streak plate rating ([7]; Set Two, BIT 25 ppm, 3rd inoculation 48 h) of the same molecule?
The streak plate rating was 5 (>45 viable microorganisms Severely contaminated).

What about the streak plate rating ([7]; Set Two, BIT 25 ppm, 3rd inoculation 72 h) of the same molecule?
Its streak plate rating is 5 (>45 viable microorganisms Severely contaminated).

And the streak plate rating ([7]; Set Two, BIT 50 ppm, 1st inoculation 24 h)?
Its streak plate rating is 5 (>45 viable microorganisms Severely contaminated).

What about the streak plate rating ([7]; Set Two, BIT 50 ppm, 1st inoculation 48 h) of the same molecule?
Its streak plate rating is 5 (>45 viable microorganisms Severely contaminated).

And the streak plate rating ([7]; Set Two, BIT 50 ppm, 1st inoculation 72 h)?
Its streak plate rating is 5 (>45 viable microorganisms Severely contaminated).

And the streak plate rating ([7]; Set Two, BIT 50 ppm, 2nd inoculation 24 h)?
Its streak plate rating is 5 (>45 viable microorganisms Severely contaminated).

And the streak plate rating ([7]; Set Two, BIT 50 ppm, 2nd inoculation 48 h)?
The streak plate rating was 5 (>45 viable microorganisms Severely contaminated).

What about the streak plate rating ([7]; Set Two, BIT 50 ppm, 2nd inoculation 72 h) of the same molecule?
The streak plate rating was 5 (>45 viable microorganisms Severely contaminated).

And the streak plate rating ([7]; Set Two, BIT 50 ppm, 3rd inoculation 24 h)?
Its streak plate rating is 5 (>45 viable microorganisms Severely contaminated).

What about the streak plate rating ([7]; Set Two, BIT 50 ppm, 3rd inoculation 48 h) of the same molecule?
Its streak plate rating is 5 (>45 viable microorganisms Severely contaminated).

And the streak plate rating ([7]; Set Two, BIT 50 ppm, 3rd inoculation 72 h)?
Its streak plate rating is 5 (>45 viable microorganisms Severely contaminated).
